Laboratory results as given in US10718028B2, “Fluorescent probes for abasic site detection” (CASE WESTERN RESERVE UIVERSITY, priority 2015, dated 2020).

How the values were obtained:
[1] = Absorption and emission spectra of AP site binding probes in ethanol; format: physicochemical
Description: NMR spectra were recorded on a Varian Mercury 300 MHz, a Varian Inova 400, and a Varian Inova 600 MHz spectrometer at room temperature, except where otherwise noted. Chemical shifts for 1H NMR were reported as 6, parts per million, and referenced to CHCl3 at 7.26 ppm or TMS at 0 ppm. Chemical shifts for ^13C NMR were reported as 6 and referenced to the center line of the CDCl3 triplet at 77.0 ppm or CH2Cl2 pentet at 54.0 ppm. Low resolution mass spectra were recorded on a ThermoScientific LCQ Advantage or a Finnigan LCQ Deca mass spectrometer. Fluorescence data were collected on a Varian Cary Eclipse fluorescence spectrophotometer in a quartz cuvette with a 1 cm pathlength or on a Tecan Infinite M200 scanner. Absorbance data were collected on a Varian Cary 50 Bio UV-Visible Spectrophotometer in a quartz cuvette with a 1 cm path length.
To characterize the fluorescent properties, the absorption and emission spectra were collected for all final compounds.

[2] = Optical properties of Cy7MX in various solvents (Example 2); format: physicochemical
Excerpt: Fluorescence quantum yield measurements. Fluorescent quantum yields determined by a comparative method to an indocyanine green (ICG) standard (F=0.132 in EtOH) with refractive index correction according to the equation:
[formula] • where F is the quantum yield; m is the slope of the integrated fluorescence intensity as a function of absorbance maxima; n is the refractive index of the solvent (EtOH, 1.3611; MeCN, 1.3442; H2O, 1.333; and CHCl3, 1.4459); and R is the reference sample, ICG in EtOH. Data were collected in a quartz cuvette with a 1 cm path length. Absorbance maxima for each sample were kept at or below 0.2 absorbance units to avoid inner filter effects. Fluorophores were excited at 700 nm and emission spectra integrated from 705 to 1000 nm. Solvents used were spectroscopic grade ethanol and HPLC grade acetonitrile, HPLC grade chloroform, and HPLC grade water. For the water solution, Cy7MX was first dissolved in MeCN and diluted at least 200 fold. SSB Activity Assay General Procedures
The absorption and fluorescence properties of Cy7MX were then evaluated in relatively nonpolar (CHCl3), polar aprotic (MeCN), and polar protic (EtOH and H2O) solvents. […] Likewise, the quantum yields of Cy7MX in these solvents compare favorably with other cyanine dyes (Table 3).

U:A-paired DNA = test: SSB activity assay control reactions; format: biochemical
Description: SSB Activity Assay Control Reactions
Samples were prepared in triplicate.
After evaluating the fluorescence properties of Cy7MX, its ability to bind to AP sites was examined We developed an assay using a fluorescently tagged dsDNA (double stranded DNA) oligonucleotide with a single uracil incorporated into the labeled strand (FIG. 5A). A green emitting hexachlorofluorescein (HEX) label was incorporated at the 5′ end of the sense strand in order to avoid overlapping with the NIR fluorecent emission of Cy7MX. We expected that treatment of this oligomer with UDG would generate an AP site and subsequent treatment with APE would produce a single strand break. This break could be visualized by denaturing gel electrophoresis to reveal a 16mer single strand DNA (ssDNA) instead of the 40mer parent (FIG. 5B). However, we hypothesized that if the oligomer were treated with Cy7MX prior to APE treatment, the covalent Cy7MX:AP site lesion would not be recognized by APE as a substrate and no SSB would form.

[3] = tested on: AP sites in calf thymus DNA; test: MX and Cy7MX genomic DNA blocking assay; format: binding; conditions: not blocked by MX
Description: FIG. 10 illustrates fluorescence response and MX blocking of Cy7MX. Calf thymus DNA treated with heat and acid for increments of 15 min to give a linear relative number of AP sites. AP DNA was then pretreated with MX (50 mM, +MX) or NaCl (50 mM, −MX) followed by incubation with Cy7MX (0.05 mM). Fluorescence measures show a linear response to Cy7MX when not blocked by MX.
Calf thymus DNA was purchased from Sigma and was reconstituted overnight at 4° C. in either H2O or 500 mM MX (to eliminate basal AP sites) with gentle shaking (1.5 mL water or solution per 5 mg DNA). For samples reconstituted in MX solution, an ethanol precipitation was performed twice before heat and acid treatment (vide infra) then reconstituted in water. The DNA-water solution was aliquoted to 1.5 mL Eppendorf tubes (360 μL) and 10× Citrate buffer (1M NaCl, 100 μM monosodium phosphate, 100 μM monosodium citrate, pH 5.0) was added to a final concentration of 1×. For t=0 min samples, ice-cold 100% EtOH (1.0 mL) was added immediately and the Eppendorf tubes stored at −20° C. […]
To 80 μL aliquots of DNA was added either 10 μL of MX (500 mM, pH 7) or vehicle control (500 mM NaCl). […] Aliquots (125 μL) of the samples were added to a black, clear-bottom 96 well plate (Corning) and analyzed with 700 nm excitation and 790 nm emission. Fluorescence was adjusted to DNA concentration.

Q: With `CCCN1/C(=C/C=C2\CCCC(/C=C/C3=[N+](CCC)c4ccccc4C3(C)C)=C2Oc2ccc(CC(=O)NCCCON)cc2)C(C)(C)c2ccccc21` [Cy7MX, 2-((E)-2-((E)-2-(4-(2-((3-(aminooxy)propyl)amino)-2-oxoethyl)phenoxy)-3-((E)-2-(3,3-dimethyl-1-propylindolin-2-ylidene)ethylidene)cyclohex-1-en-1-yl)vinyl)-3,3-dimethyl-1-propyl-3H-indol-1-ium 2,2,2-trifluoroacetate] as the compound, how does the Stokes shift [1] read?
A: Its Stokes shift is 20 nm.

Q: What about the λabs max [1] of the same compound?
A: Its λabs max is 770 nm.

Q: And the λem max [1]?
A: The λem max was 796 nm.

Q: And the Φ ([2]; CHCl3)?
A: The Φ was 38.2%.

Q: And the λabs ([2]; CHCl3)?
A: Its λabs is 770 nm.

Q: And the λem ([2]; CHCl3)?
A: Its λem is 791 nm.

Q: What about the absorption maximum ([2]; CHCl3, MeCN, EtOH and H2O) of the same compound?
A: The absorption maximum was ~770 nm.

Q: What about the emission maximum ([2]; CHCl3, MeCN, EtOH and H2O) of the same compound?
A: The emission maximum was ~790 nm.

Q: What about the solvatochromic shifts ([2]; CHCl3, MeCN, EtOH and H2O) of the same compound?
A: The solvatochromic shifts was “No solvatochromic shifts were observed”.

Q: And the Φ ([2]; EtOH)?
A: The Φ was 39.3%.

Q: And the ε ([2]; EtOH)?
A: The ε was 127,000 M−1cm−1.

Q: What about the λabs ([2]; EtOH) of the same compound?
A: Its λabs is 770 nm.

Q: And the λem ([2]; EtOH)?
A: The λem was 796 nm.

Q: And the Φ ([2]; H2O)?
A: The Φ was 6.6%.

Q: And the ε ([2]; H2O)?
A: Its ε is 140,000 M−1cm−1.

Q: What about the λabs ([2]; H2O) of the same compound?
A: The λabs was 767 nm.

Q: And the λem ([2]; H2O)?
A: Its λem is 790 nm.

Q: What about the Φ ([2]; MeCN) of the same compound?
A: The Φ was 48.7%.

Q: And the ε ([2]; MeCN)?
A: The ε was 154,000 M−1cm−1.

Q: And the λabs ([2]; MeCN)?
A: The λabs was 767 nm.

Q: What about the λem ([2]; MeCN) of the same compound?
A: Its λem is 789 nm.

Q: And the “SSB activity of the probe itself” value (U:A-paired DNA; U:A-paired DNA treated with Cy7MX alone (no enzymes))?
A: The value was “no SSB activity”.

Q: What about the SSB activity (U:A-paired DNA; U:A-paired DNA with Cy7MX together with UDG and APE) of the same compound?
A: Its SSB activity is “the SSB activity was reduced”.

Q: What about the “fluorescence intensity versus DNA heat/acid treatment time” value [3] of the same compound?
A: Its value is “linear relationship”.
